Source: US20130274258A1, “CARBAZOLE AND CARBOLINE DERIVATIVES, AND PREPARATION AND THERAPEUTIC APPLICATIONS THEREOF” (PHILIP MORRIS PRODUCTS S.A., priority 2010, published 2013)
Like-named read-outs stand apart in the source and are kept apart here.

Tested on: Jurkat cells
Assay: Jurkat cell viability, resazurin (Alamar Blue) assay
Assay type: cell-based
Details: for IC50: Homo sapiens
Procedure: The compounds were tested for pharmacological activity. In each of the tests, each compound was tested at […] in duplicates. […] The percentage of response relative to the DMSO control was then calculated for the mean value of the duplicates of each test. The values of the three tests were finally averaged and the standard deviations calculated.
Jurkat cells (10'000 cells/well) were incubated in the presence of various concentrations of compounds, doxorubicin or staurosporine. Twenty-two hours later, cells were incubated with resazurin (20 μg/ml) for 4 hours and fluorescence was measured at 590 nm.

[1] = Jurkat cells, 22 h then resazurin 4 h, three experiments in duplicates
[2] = Jurkat cells, 22 h then resazurin 4 h, three experiments in duplicates, read-out: IC50
[3] = Jurkat, control compounds of the tests, read-out: IC50 of control agents included in each test

| SMILES | IC50 [2] | also measured |
| --- | --- | --- |
| Cc1nccc2c1[nH]c1ccc(-c3ccsc3)cc12 [Example C10, 6-(thiophen-3-yl)-1-methyl-9H-pyrido[3,4-b]indole] | – | IC50 (μM) [1]: not active |
| Cc1cccc2c1[nH]c1ccc(-c3ccc4c(c3)CCO4)cc12 [Example E58, 6-(2,3-dihydrobenzofuran-5-yl)-1-methyl-9H-carbazole] | 3750 nM | – |
| CCNC(=O)NCc1cccc(-c2ccc3[nH]c4c(C)nccc4c3c2)c1 [Example E41] | 1240 nM | – |
| Cc1nccc2c1[nH]c1ccc(-c3cncnc3)cc12 [Example C8, 6-(pyrimidin-5-yl)-1-methyl-9H-pyrido[3,4-b]indole] | 27800 nM | – |
| Cc1nccc2c1[nH]c1ccc(-c3ccc(CO)o3)cc12 [Example E32, 6-(5-hydroxymethylfuran-2-yl)-1-methyl-9H-pyrido[3,4-b]indole] | 3660 nM | – |
| Cc1nccc2c1[nH]c1ccc(-c3ccc4ccccc4c3)cc12 [Example C1, 6-(naphthalen-2-yl)-1-methyl-9H-pyrido[3,4-b]indole] | – | IC50 (μM) [1]: not active |
| Cc1nccc2c1[nH]c1ccc(-c3cccc(S(=O)(=O)NCCO)c3)cc12 [Example E47, N-(2-hydroxyethyl)-3-(1-methyl-9H-pyrido[3,4-b]indol-6-yl)benzenesulfonamide] | 1210 nM | – |
| Cc1nccc2c1[nH]c1ccc(-c3cccc(N(C)C)c3)cc12 [Example C5, 6-(3-(N,N-dimethylamino)phenyl)-1-methyl-9H-pyrido[3,4-b]indole] | 11500 nM | – |
| Cc1nccc2c1[nH]c1ccc(-c3cccc(Cc4nn[nH]n4)c3)cc12 [Example E27, 6-(((2H-tetrazol-5-yl)methyl)phenyl)-1-methyl-9H-pyrido[3,4-b]indole] | 2200 nM | – |
| CC(=O)OCc1cc(COC(C)=O)cc(-c2ccc3[nH]c4c(C)nccc4c3c2)c1 [Example E16, 6-(3,5-bis(acetoxymethyl)phenyl)-1-methyl-9H-pyrido[3,4-b]indole] | 52 nM | – |
| COc1ccc(-c2ccc3[nH]c4c(C)nccc4c3c2)cc1 [Example C4, 6-(4-methoxyphenyl)-1-methyl-9H-pyrido[3,4-b]indole] | – | IC50 (μM) [1]: not active |
| COC(=O)c1cccc(-c2ccc3[nH]c4c(C)nccc4c3c2)c1 [Example E14, 6-(3-methoxycarbonylphenyl)-1-methyl-9H-pyrido[3,4-b]indole] | 7230 nM | – |
| Cc1nccc2c1[nH]c1ccc(-c3ccc(Cl)cc3)cc12 [Example C2, 6-(4-chlorophenyl)-1-methyl-9H-pyrido[3,4-b]indole] | – | IC50 (μM) [1]: not active |
| COc1cccc2c1C(=O)c1c(O)c3c(c(O)c1C2=O)C[C@@](O)(C(=O)CO)C[C@@H]3O[C@H]1C[C@H](N)[C@H](O)[C@H](C)O1 [doxorubicin, reference compound] | – | IC50 [3]: 85 nM |
| Cc1ccccc1-c1ccc2[nH]c3c(C)nccc3c2c1 [Example C9, 6-(2-methylphenyl)-1-methyl-9H-pyrido[3,4-b]indole] | 41800 nM | – |
| Cc1nccc2c1[nH]c1ccc(-c3ccccc3F)cc12 [Example E4, 6-(2-fluorophenyl)-1-methyl-9H-pyrido[3,4-b]indole] | 4070 nM | – |
| CC(=O)OCc1cccc(-c2ccc3[nH]c4c(C)nccc4c3c2)c1 [Example E15, 6-(3-(acetoxymethyl)phenyl)-1-methyl-9H-pyrido[3,4-b]indole] | 34 nM | – |
| COc1cncc(-c2ccc3[nH]c4c(C)nccc4c3c2)c1 [Example E53, 6-(5-methoxypyridin-3-yl)-1-methyl-9H-pyrido[3,4-b]indole] | 2610 nM | – |
| CC(=O)c1cccc(-c2ccc3[nH]c4c(C)nccc4c3c2)c1 [Example E13, 6-(3-acetylphenyl)-1-methyl-9H-pyrido[3,4-b]indole] | 2030 nM | – |
| Cc1nccc2c3cc(-c4ccc5c(c4)CCO5)ccc3n(Cc3ccccc3)c12 [Example C12] | > 10000 nM | – |
| C=CCn1c2ccc(-c3ccc4c(c3)CCO4)cc2c2ccnc(C)c21 [Example C11] | > 10000 nM | – |
| CCCCCn1c2ccc(-c3ccc4c(c3)CCO4)cc2c2ccnc(C)c21 [Example C13] | > 10000 nM | – |
| Cc1nccc2c1[nH]c1ccc(-c3cccc(CN)c3)cc12 [Example E10, 6-(3-(aminomethyl)phenyl)-1-methyl-9H-pyrido[3,4-b]indole] | 988 nM | – |
| CN[C@@H]1C[C@H]2O[C@@](C)([C@@H]1OC)n1c3ccccc3c3c4c(c5c6ccccc6n2c5c31)C(=O)NC4 [staurosporine, reference compound] | – | IC50 [3]: 31 nM |
| Cc1nccc2c1[nH]c1ccc(-c3ccc(C(F)(F)F)cc3)cc12 [Example C3, 6-(4-(trifluoromethyl)phenyl)-1-methyl-9H-pyrido[3,4-b]indole] | – | IC50 (μM) [1]: not active |
| Cc1nccc2c1[nH]c1ccc(-c3cccc(C(C)O)c3)cc12 (stereo not shown) [Example E19, 6-(3-(1-hydroxyethyl)phenyl)-1-methyl-9H-pyrido[3,4-b]indole] | 1400 nM | – |
| CCc1nccc2c1[nH]c1ccc(-c3cccc(COC)c3)cc12 [Example E40, 6-(3-(methoxymethyl)phenyl)-1-ethyl 9H-pyrido[3,4-b]indole] | 2880 nM | – |

The remaining molecules from weak to strong by IC50 [2], led by results:

| IC50 [2] | SMILES | also measured |
| --- | --- | --- |
| 913 nM | Cc1nccc2c1[nH]c1ccc(-c3cccc(-n4cccn4)c3)cc12 [Example E59, 6-(3-(1H-pyrazol-1-yl)phenyl)-1-methyl-9H-pyrido[3,4-b]indole] | – |
| 733 nM | Cc1nccc2c1[nH]c1ccc(-c3cccc(CN4CCOCC4)c3)cc12 [Example E56] | – |
| 567 nM | Cc1nccc2c1[nH]c1ccc(-c3cccc(F)c3)cc12 [Example E5, 6-(3-fluorophenyl)-1-methyl-9H-pyrido[3,4-b]indole] | – |
| 490 nM | Cc1nccc2c1[nH]c1ccc(-c3ccc4c(c3)OCO4)cc12 [Example E30, 6-(benzo[d][1,3]dioxol-5-yl)-1-methyl-9H-pyrido[3,4-b]indole] | – |
| 374 nM | Cc1nccc2c1[nH]c1ccc(-c3ccc4[nH]ccc4c3)cc12 [Example E26, 6-(1H-indol-5-yl)-1-methyl-9H-pyrido[3,4-b]indole] | – |
| 340 nM | CCc1nccc2c1[nH]c1ccc(-c3cccc(COCCOC)c3)cc12 [Example E43, 6-(3-((2-methoxyethoxy)methyl)phenyl)-1-ethyl 9H-pyrido[3,4-b]indole] | – |
| 302 nM | CC(C)c1nccc2c1[nH]c1ccc(-c3ccc4c(c3)CCO4)cc12 [Example E39, 6-(2,3-dihydrobenzofuran-5-yl)-1-isopropyl-9H-pyrido[3,4-b]indole] | – |
| 260 nM | Cc1nccc2c1[nH]c1ccc(-c3cccc(S(N)(=O)=O)c3)cc12 [Example E46, 3-(1-methyl-9H-pyrido[3,4-b]indol-6-yl)benzenesulfonamide] | – |
| 230 nM | CCCc1nccc2c1[nH]c1ccc(-c3ccc4c(c3)CCO4)cc12 [Example E38, 6-(2,3-dihydrobenzofuran-5-yl)-1-propyl-9H-pyrido[3,4-b]indole] | – |
| 225 nM | Cc1nccc2c1[nH]c1ccc(-c3cccc(CNC(=O)N4CCN(C)CC4)c3)cc12 [Example E49] | – |
| 200 nM | Cc1nccc2c1[nH]c1ccc(-c3cccc(CN4CCN(C)CC4)c3)cc12 [Example E57, 6-(3-((4-methylpiperazin-1-yl)methyl)phenyl)-1-methyl 9H-pyrido[3,4-b]indole] | – |
| 195 nM | Cc1nccc2c1[nH]c1ccc(-c3cccc(O)c3)cc12 [Example E17, 6-(3-hydroxyphenyl)-1-methyl-9H-pyrido[3,4-b]indole] | – |
| 130 nM | Cc1ccc(-c2ccc3[nH]c4c(C)nccc4c3c2)o1 [Example E28, 6-(5-methylfuran-2-yl)-1-methyl-9H-pyrido[3,4-b]indole] | – |
| 128 nM | Cc1cc(C)cc(-c2ccc3[nH]c4c(C)nccc4c3c2)c1 [Example E8, 6-(3,5-dimethylphenyl)-1-methyl-9H-pyrido[3,4-b]indole] | – |
| 96 nM | Cc1nccc2c1[nH]c1ccc(-c3cccc(N)c3)cc12 [Example E33, 6-(3-aminophenyl)-1-methyl-9H-pyrido[3,4-b]indole] | – |
| 64 nM | Cc1nccc2c1[nH]c1ccc(-c3cccc(CC#N)c3)cc12 [Example E23, 6-(3-cyanomethylphenyl)-1-methyl-9H-pyrido[3,4-b]indole] | – |
| 53 nM | Cc1nccc2c1[nH]c1ccc(-c3ccc4c(c3)CCCO4)cc12 [Example E54, 6-(chroman-6-yl)-1-methyl-9H-pyrido[3,4-b]indole] | – |
| 52 nM | Cc1nccc2c1[nH]c1ccc(-c3cccc(CNS(C)(=O)=O)c3)cc12 [Example E45] | – |
| 46 nM | Cc1nccc2c1[nH]c1ccc(-c3cccc(C(N)=O)c3)cc12 [Example E12, 6-(3-aminocarbonylphenyl)-1-methyl-9H-pyrido[3,4-b]indole] | – |
| 46 nM | Cc1nccc2c1[nH]c1ccc(-c3cccc(CO)c3)cc12 [Example E18, 6-(3-hydroxymethylphenyl)-1-methyl-9H-pyrido[3,4-b]indole] | – |
| 34 nM | CC(=O)NCc1cccc(-c2ccc3[nH]c4c(C)nccc4c3c2)c1 [Example E11, 6-(3-(acetamidomethyl)phenyl)-1-methyl-9H-pyrido[3,4-b]indole] | – |
| 28 nM | Cc1nccc2c1[nH]c1ccc(-c3cccc(NC=O)c3)cc12 [Example E34, 6-(3-formamidophenyl)-1-methyl-9H-pyrido[3,4-b]indole] | – |
| 25 nM | Cc1c2[nH]c3ccc(-c4cc(Cl)cc(Cl)c4)cc3c2cc[n+]1[O-] [Example E60, 6-(3,5-dichlorophenyl)-1-methyl-9H-pyrido[3,4-b]indole 2-oxide] | – |
| 18 nM | CCc1nccc2c1[nH]c1ccc(-c3cccc(NC(C)=O)c3)cc12 [Example E52, N-(3-(1-ethyl-9H-pyrido[3,4-b]indol-6-yl)phenyl)acetamide] | – |
| 16 nM | CCc1nccc2c3cc(-c4cccc(C(N)=O)c4)ccc3n(C)c12 [Example E50, 3-(1-ethyl-9-methyl-9H-pyrido[3,4-b]indol-6-yl)benzamide] | – |
